Read-outs that look alike come from different tables or passages of the source.

For orientation: IC50 means the concentration that inhibits the measured activity by half.

Holding throughout (format): cell-based, human
The subject of assay [1] is SKOV3 (Ovarian adenocarcinoma). In words: In vitro cytotoxicity, microculture tetrazolium (MTT) assay, SKOV3. How it is done:
(§1) In Vitro Cytotoxicity--Microculture Tetrazolium Assay
(§2) The microculture tetrazolium assay was used to test in vitro cytotoxicity. This assay is described in Plumb, J. A. et al., 1989 Cancer Research 49, 4435-4440, which is herein incorporated by reference. The cytotoxicity of compounds towards tumor cells is measured in vitro using the assay. This assay method is based upon the ability of live, but not dead cells to reduce the yellow water soluble dye 3-(4;5-dimethylthiazol-2-yl)-2,5-diphenyltetrazolium bromide (MTT) to its water insoluble purple formazan product.
(§3) Human Tumor Cell lines, used were:
SKOV3 (Ovarian adenocarcinoma)--provided by Dr. V. Ling,
(§4) The cells were maintained in exponential growth in culture in minimal essential media (MEM) supplemented with non-essential amino acids, and containing 15% (v/v) fetal bovine serum, 5 mM L-glutamine, 1 mM sodium pyruvate, and 0.1 U/ml insulin. All cell lines were grown at 37° C. in an atmosphere of 5% CO2 in air.
(§5) Test compounds: 20 mM in DMSO and diluted to a final concentration of 200 μM in culture medium before use.
(§6) The following is the generic description of the assay method. It should be noted that although the conditions described work well with the cells listed above, the initial plating density and the MTT concentration used should be verified for each new cell line used to test compounds.
(§7) For each assay, doxorubicin is included as an inter-assay standard. This allows us to monitor the behaviour of the assay in general, and in particular, to check that the SKVLB line has maintained its resistant phenotype.
(§8) The plate layout is done in the following manner: The assays are carried out in 96-well (8 well×12 well) microtiter plates. Serial dilutions of the compound are tested along the length of the plate. A 1:3 serial dilution of compound in culture medium covers a concentration range from 100 μM to 1.7 nM. Each concentration of compound is tested in quadruplet, allowing two compounds to be tested per plate. Wells containing no cells (blank) and cells with no test compound (control) are included on each plate.
(§9) Cells are plated out in 100 μl of culture medium in the microtiter plates at a density of around 1,500-4,000 cells per well. The plates are incubated overnight to allow the cells to become adherent after which the test compound is added (100 μl of appropriate dilution per well). The cells are incubated with test compound at 37° C. for 48 h after which the compound is replaced with fresh medium. After a further 48 h incubation at 37° C., 50 μl of MTT solution (2 mg/ml) is added to each well. The plates are incubated in the dark for 4 h at 37° C. after which the medium is removed. The MTT formazan product is extracted from the cells by the addition of 200 μl DMSO followed by 50 μl of Sorensen's buffer. The plates are shaken briefly and the absorbance at 570 nm is read using a Molecular Devices UV max plate reader. Curves are fit to the MTT assay data using a four parameter logistic equation, and the data are normalized to fit a 0% to 100% survival scale.

Assay [2] relates to SKVLB (Ovarian; multidrug resistant). In words: In vitro cytotoxicity, microculture tetrazolium (MTT) assay, SKVLB. As to conditions: for IC50: SKVLB, multidrug resistant, read-out: IC50; for VLB/OV3: ratio SKVLB / SKOV3. An outline of the steps: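 Multidrug-resistant ovarian SKVLB cells exposed 48 h at 37 °C to 1:3 serial dilutions (100 μM–1.7 nM), then 48 h in fresh medium. MTT reduction read at 570 nm after DMSO extraction; four-parameter logistic fit normalized to 0–100% survival.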

Assay [3] has as its system T47D (Ductal carcinoma of breast). Description: In vitro cytotoxicity, microculture tetrazolium (MTT) assay, T47D. How it is done:
as §1, §2, §3
T47D (Ductal carcinoma of breast)--ATCC catalog #HTB-133.
as §4, §5, §6, §7, §8, §9

In assay [4] the test system is HT 29 (Colon adenocarcinoma). In words: In vitro cytotoxicity, microculture tetrazolium (MTT) assay, HT 29. On the procedure: as §1, §2, §3
HT 29 (Colon adenocarcinoma) ATCC catalog #HTB-38.
as §4, §5, §6, §7, §8, §9

The next assay deals with Lox (Melanoma). Description: In vitro cytotoxicity, microculture tetrazolium (MTT) assay, Lox. How it is done:
as §1, §2, §3
Lox (Melanoma)--Southern Research Institute.
as §4, §5, §6, §7, §8, §9

Where [5] appears, read: Homo sapiens, SK-OV-3, SKOV3, read-out: IC50.
[6] abbreviates: Homo sapiens, HT-29, HT29, read-out: IC50.

For `CCC1CC2=C(C(=O)c3ccccc3C2=O)C(OC2CC(OC(C)=O)C(OC(C)=O)C(C)O2)O1` (mixture of isomers) [BCH1607, (1'S,1S,3S) and (1'S,1R,3R)-5,10-dioxo-3-ethyl-1-(2',3',4',6'-tetradeoxy-3',4'-diacetoxy-L-lyxohexo-pyranose)-3,4,5,10-tetrahydro-1H-naphtho [2,3-C] pyran], the IC50 amounted to 7260 nM in assay [1] (SKOV3, read-out: IC50); 19800 nM in assay [2]; 14700 nM in assay [3] (read-out: IC50); 21600 nM in assay [4] (HT29, read-out: IC50); 8970 nM in the assay with Lox (Melanoma) (read-out: IC50). Also, the VLB/OV3 in assay [2] is recorded as 2.73.
Take `C=CC[C@@H]1CC2=C(C(=O)c3ccccc3C2=O)[C@@H](O[C@H]2C[C@H](NC(=O)C(F)(F)F)[C@H](O)[C@H](C)O2)O1` (mixture of isomers) [BCH2031, (1'S,1S,3S) and (1'S,1-R,3-R)-3-([2',3',6'-trideoxy-3'-trifluoroacetamido-4'-hydroxy-L-lyhohexopyranose]-5,10-dioxo-3,4,5,10-tetrahydronaphtho-[2,3-c]-pyran-3-yl)-propene]: the IC50 in assay [1] (setting [5]) is 6000 nM; in assay [2] (Homo sapiens), 18000 nM; in assay [3] (Homo sapiens, read-out: IC50), 16000 nM; in assay [4] (setting [6]), 8500 nM; in the assay with Lox (Melanoma) (Homo sapiens, read-out: IC50), 2800 nM. In addition, the VLB/OV3 in assay [2] was 3.
In the case of `CC(=O)OC1C(C)OC(OC2OC(C(C)=O)CC3=C2C(=O)c2ccccc2C3=O)C(I)C1OC(C)=O` (mixture of isomers) [BCH2065, (1'S,1R,1S) and (1'S,1S,3R)-methyl-(1-[2',6'-dideoxy-3',4'-diacetoxy-2'-iodo-L-arabino-hexopyranose]-5,10-dioxo-3,4,5,10-tetrahydronaphtho-[2,3-c]-pyran-3-yl) ketone], the IC50 came to 1540 nM in assay [1] (SKOV3, read-out: IC50); 6100 nM in assay [2]; 2200 nM in assay [3] (read-out: IC50); 3420 nM in assay [4] (HT29, read-out: IC50); 1400 nM with Lox (Melanoma) (read-out: IC50). For the same molecule, the VLB/OV3 in assay [2] is given as 4.
In the case of `CC(=O)C1CC2=C(C(=O)c3ccccc3C2=O)C(OC[C@@H]2CCCN2C(=O)OC(C)(C)C)O1` (mixture of isomers) [BCH2067, (1S,2'S,3R) and (1R,2'S,3S)-methyl-(1-[O-N-BOC-prolinol]-5,10-dioxo-3,4,5,10-tetrahydro-1H-naphtho [2,3-C]pyran-3-yl) ketone], the IC50 in assay [1] (SKOV3, read-out: IC50) turned out to be 1200 nM; in assay [2], 2240 nM; in assay [3] (read-out: IC50), 540 nM; in assay [4] (HT29, read-out: IC50) it was 323 nM; in the assay with Lox (Melanoma) (read-out: IC50) it was 1100 nM. The VLB/OV3 in assay [2] amounted to 2.
As to `CC(=O)[C@@H]1CC2=C(C(=O)c3ccccc3C2=O)[C@H](OC2CCC(NC(=O)N(CCCl)N=O)CC2)O1` (mixture of isomers) [BCH2114, (1R,3S) and (1S,3R)-3-aceto-5,10-dioxo-1 (4-chloroethylnitrosoureido cyclohexyl-oxy)-3,4,5,10-tetrahydro-1H-naphtho-(2,3-c)-pyran], the IC50 turned out to be 472 nM in assay [1] (SKOV3, read-out: IC50); 2040 nM in assay [2]; 655 nM in assay [3] (read-out: IC50); 257 nM in assay [4] (HT29, read-out: IC50); 373 nM with Lox (Melanoma) (read-out: IC50). In assay [2], the VLB/OV3 came to 4.32.
Consider `CC(=O)C1CC2=C(C(=O)c3ccccc3C2=O)C(O[C@H]2C[C@H](O)[C@H](O)[C@H](C)O2)O1` (mixture of isomers) [BCH2117, (1'S,1S,3R) and (1'S,1R,3S)-methyl-(1-[dideoxy-2',6'-dihydroxy-3',4'-L-lyxohexopyranose]-5,10-dioxo-3,4,5,10-tetrahydronaphtho-[2,3-c]-pyran-3-yl) ketone], for which the IC50 in assay [1] (SKOV3, read-out: IC50) amounted to 9.5 nM; in assay [2] it was 332 nM; in assay [3] (read-out: IC50), 37.4 nM; in assay [4] (HT29, read-out: IC50), 30 nM; with Lox (Melanoma) (read-out: IC50), 73 nM. For the same molecule, in assay [2], the VLB/OV3 is given as 35.13.
On to `COc1cccc2c1C(=O)c1c(O)c3c(c(O)c1C2=O)C[C@@](O)(C(=O)CO)C[C@@H]3O[C@H]1C[C@H](N)[C@H](O)[C@H](C)O1` [Adriamycin, reference compound], for which the IC50 amounted to 12 nM in assay [1] (Homo sapiens, SK-OV-3); 70 nM in assay [3] (Homo sapiens); 90 nM in assay [4] (Homo sapiens, HT-29); 34 nM in the assay with Lox (Melanoma) (Homo sapiens).
Take `C=CCC1CC2=C(C(=O)c3ccccc3C2=O)C(OC2CC(NC(=O)C(F)(F)F)C(O)C(C)O2)O1` (stereo not shown) [BCH1648]: the IC50 in assay [1] (SKOV3, read-out: IC50) turned out to be 51.9 nM; in assay [2], 315 nM; in assay [3] (read-out: IC50), 360 nM; in assay [4] (HT29, read-out: IC50), 309 nM; in the assay with Lox (Melanoma) (read-out: IC50) it was 138 nM. Moreover, the VLB/OV3 in assay [2] came to 6.07.
Turning to `C=CC[C@H]1CC2=C(C(=O)c3ccccc3C2=O)[C@@H](OC2C[C@H](NC(=O)C(F)(F)F)[C@H](O)[C@H](C)O2)O1` (stereo partly drawn) [BCH1649, (1'-S,1-R,3-S)-3-([2',3',6'-trideoxy-3'-trifluoroacetamido-4'-hydroxy-L-lyhohexopyranose]-5,10-dioxo-3,4,5,10-tetrahydronaphtho-[2,3-c]-pyran-3-yl)-propene], the IC50 is 110 nM in assay [1] (SKOV3, read-out: IC50); 459 nM in assay [2]; 380 nM in assay [3] (read-out: IC50); 331 nM in assay [4] (HT29, read-out: IC50); 217 nM in the assay on Lox (Melanoma) (read-out: IC50). Moreover, the VLB/OV3 in assay [2] was determined as 4.17.
With `CC(NC(=O)C(F)(F)F)[C@H]1CC2=C(C(=O)c3ccccc3C2=O)[C@H](O[C@H]2C[C@H](O)[C@H](O)[C@H](C)O2)O1` (stereo partly drawn) [BCH2018, (1'S,1S,3R)-3-(trifluoroacetamidoethyl)-5,10-dioxo-1-(2',3',6'-trideoxy-3',4'-dihydroxy-L-lyxohexopyranose)-3,4,5,10-tetrahydro-1H-naphtho-[2,3-c]-pyran], the IC50 was determined as 3110 nM in assay [1] (setting [5]); 17700 nM in assay [2] (Homo sapiens); 8560 nM in assay [3] (Homo sapiens, read-out: IC50); 14200 nM in assay [4] (setting [6]); 2380 nM in the assay with Lox (Melanoma) (Homo sapiens, read-out: IC50). In addition, in assay [2], the VLB/OV3 was found to be 5.69.
Turning to `CC(=O)[C@@H]1CC2=C(C(=O)c3ccccc3C2=O)[C@@H](O[C@@H]2O[C@H](CO)[C@@H](O)[C@H](O)[C@H]2NC(=O)N(CCCl)N=O)O1` [BCH2038, (1'R,1R,3S)-3-aceto-5,10-dioxo-1-(2-deoxy-2-chloroethyl-nitrosoureido-D-glucopyranose)-3,4,5,10-tetrahydro-1H-naphtho-[2,3-C] pyran], the IC50 turned out to be 832 nM in assay [1] (SKOV3, read-out: IC50); 3500 nM in assay [2]; 2000 nM in assay [3] (read-out: IC50); 2000 nM in assay [4] (HT29, read-out: IC50); 173 nM with Lox (Melanoma) (read-out: IC50). In addition, in assay [2], the VLB/OV3 is given as 4.16.
Regarding `CC(=O)C1CC2=C(C(=O)c3ccccc3C2=O)C(OC2CC(NC(=O)C(F)(F)F)C(NC(=O)C(F)(F)F)C(C)O2)O1` [BCH2102, (1R,3S,1'S) and (1S,3R,1'S)-Methyl-(1-[2',3',4',6'-tetradeoxy-3',4'-bis-trifluoroacetamido-L-arabinohexopyranose]-5,10-dioxo-3,4,5,10-tetrahydronaphthaleno-[2,3-c]pyran-3-yl) ketone], the IC50 in assay [1] (SKOV3, read-out: IC50) was found to be 130 nM; in assay [2] it was 723 nM; in assay [3] (read-out: IC50) it was 300 nM; in assay [4] (HT29, read-out: IC50), 150 nM; with Lox (Melanoma) (read-out: IC50), 186 nM. In assay [2], the VLB/OV3 was 5.65.

The record behind these values is patent US5736523A, “Antineoplastic heteronapthoquinones” (Biochem Pharma Inc., priority 1995, dated 1998).
